Assay results: ChEMBL document CHEMBL2203001, “Flavonoid glycosides from the leaves of Allium victorialis var. platyphyllum and their anti-neuroinflammatory effects” (Bioorg Med Chem Lett, 2012)

Columns and labels:
[1] = Cytotoxicity against mouse BV2 cells assessed as cell viability at 20 uM by MTT assay relative to LPS-treated cells; assay type: cell-based, BV-2; conditions: read-out: Activity
[2] = tested on: BV-2; test: Antineuroinflammatory activity against mouse BV2 cells assessed as inhibition of LPS-induced nitric oxide production after 24 hrs by Griess method; assay type: functional, cell-based; conditions: BV-2, 24 h

| Structure (SMILES) | viability at 20 µM [1] | IC50 [2] |
| --- | --- | --- |
| CNC(=N)NCCC[C@H](N)C(=O)O [TILARGININE] | 98.2% | 16.3 µM |
| O=C(/C=C/c1ccc(O)cc1)O[C@H]1[C@H](Oc2c(-c3ccc(O[C@H]4O[C@@H](CO)[C@H](O)[C@@H](O)[C@@H]4O)c(O)c3)oc3cc(O)cc(O)c3c2=O)O[C@H](CO)[C@@H](O)[C@@H]1O [ALLIVICTOSIDE G] | 101% | > 200 µM |
| O=C(/C=C/c1ccc(O)cc1)O[C@@H]1[C@@H](O)[C@H](Oc2c(-c3ccc(O[C@@H]4O[C@H](CO)[C@@H](O)[C@H](O)[C@H]4O)cc3)oc3cc(O[C@@H]4O[C@H](CO)[C@@H](O)[C@H](O)[C@H]4O)cc(O)c3c2=O)O[C@H](CO)[C@H]1O [ALLIVICTOSIDE E] | 104% | 49.5 µM |
| COc1cc(/C=C/C(=O)O[C@H]2[C@H](Oc3c(-c4ccc(O)cc4)oc4cc(O[C@@H]5O[C@H](CO)[C@@H](O)[C@H](O)[C@H]5O)cc(O)c4c3=O)O[C@H](CO)[C@@H](O)[C@@H]2O)ccc1O [ALLIVICTOSIDE F] | 100% | 20.4 µM |
| COc1cc(/C=C/C(=O)O[C@H]2[C@H](Oc3c(-c4ccc(O[C@H]5O[C@@H](CO)[C@H](O)[C@@H](O)[C@@H]5O)c(O)c4)oc4cc(O[C@@H]5O[C@H](CO)[C@@H](O)[C@H](O)[C@H]5O)cc(O)c4c3=O)O[C@H](CO)[C@@H](O)[C@@H]2O)ccc1O [ALLIVICTOSIDE H] | 105% | 29.9 µM |
| C[C@@H]1O[C@@H](OC[C@H]2O[C@@H](Oc3c(-c4ccc(O)cc4)oc4cc(O)cc(O)c4c3=O)[C@H](O)[C@@H](O)[C@@H]2O)[C@H](O)[C@H](O)[C@H]1O [NICOTIFLOROSIDE] | 104% | 122 µM |
| COc1cc(/C=C/C(=O)O[C@H]2[C@H](Oc3c(-c4ccc(O[C@@H]5O[C@H](CO)[C@@H](O)[C@H](O)[C@H]5O)cc4)oc4cc(O[C@@H]5O[C@H](CO)[C@@H](O)[C@H](O)[C@H]5O)cc(O)c4c3=O)O[C@H](CO)[C@@H](O)[C@@H]2O)ccc1O | 101% | 43.4 µM |
| O=c1c(O[C@@H]2O[C@H](CO)[C@@H](O)[C@H](O)[C@H]2O)c(-c2ccc(O)c(O)c2)oc2cc(O)cc(O)c12 [ISOQUERCETIN] | 97.3% | 19.8 µM |
| O=C(/C=C/c1ccc(O)cc1)O[C@H]1[C@H](Oc2c(-c3ccc(O)cc3)oc3cc(O[C@@H]4O[C@H](CO)[C@@H](O)[C@H](O)[C@H]4O)cc(O)c3c2=O)O[C@H](CO)[C@@H](O)[C@@H]1O | 105% | 47.2 µM |
| O=c1c(O)c(-c2ccc(O)cc2)oc2cc(O[C@@H]3O[C@H](CO)[C@@H](O)[C@H](O)[C@H]3O)cc(O)c12 | 107% | 39.1 µM |
| O=c1c(O[C@@H]2O[C@H](CO)[C@@H](O)[C@H](O)[C@H]2O)c(-c2ccc(O)cc2)oc2cc(O)cc(O)c12 [ASTRAGALIN] | 106% | 77.4 µM |
| O=C(/C=C/c1ccc(O)cc1)O[C@H]1[C@H](Oc2c(-c3ccc(O[C@@H]4O[C@H](CO)[C@@H](O)[C@H](O)[C@H]4O)cc3)oc3cc(O[C@@H]4O[C@H](CO)[C@@H](O)[C@H](O)[C@H]4O)cc(O)c3c2=O)O[C@H](CO)[C@@H](O)[C@@H]1O [ALLIVICTOSIDE C] | 104% | 44 µM |
| O=c1c(O[C@@H]2O[C@H](CO)[C@@H](O)[C@H](O)[C@H]2O)c(-c2ccc(O[C@@H]3O[C@H](CO)[C@@H](O)[C@H](O)[C@H]3O)cc2)oc2cc(O[C@@H]3O[C@H](CO)[C@@H](O)[C@H](O)[C@H]3O)cc(O)c12 | 102% | 33 µM |
| O=c1c(O[C@@H]2O[C@H](CO)[C@@H](O)[C@H](O)[C@H]2O)c(-c2ccc(O)cc2)oc2cc(O[C@@H]3O[C@H](CO)[C@@H](O)[C@H](O)[C@H]3O)cc(O)c12 | 106% | 28.9 µM |
| COc1cc(/C=C/C(=O)O[C@H]2[C@H](Oc3cc(O)c4c(=O)c(O[C@@H]5O[C@H](CO)[C@@H](O)[C@H](O)[C@H]5O)c(-c5ccc(O)cc5)oc4c3)O[C@H](CO)[C@@H](O)[C@@H]2O)ccc1O | 106% | 21.5 µM |
| O=c1c(O)c(-c2ccc(O[C@@H]3O[C@H](CO)[C@@H](O)[C@H](O)[C@H]3O)c(O)c2)oc2cc(O[C@@H]3O[C@H](CO)[C@@H](O)[C@H](O)[C@H]3O)cc(O)c12 | 105% | 51.7 µM |
| O=c1c(O[C@@H]2O[C@H](CO)[C@@H](O)[C@H](O)[C@H]2O)c(-c2ccc(O[C@@H]3O[C@H](CO)[C@@H](O)[C@H](O)[C@H]3O)cc2)oc2cc(O)cc(O)c12 | 99.1% | 170 µM |
| O=C(/C=C\c1ccc(O)cc1)O[C@H]1[C@H](Oc2c(-c3ccc(O[C@@H]4O[C@H](CO)[C@@H](O)[C@H](O)[C@H]4O)cc3)oc3cc(O[C@@H]4O[C@H](CO)[C@@H](O)[C@H](O)[C@H]4O)cc(O)c3c2=O)O[C@H](CO)[C@@H](O)[C@@H]1O [ALLIVICTOSIDE D] | 100% | 48.5 µM |
| O=C(/C=C/c1ccc(O)cc1)O[C@H]1[C@H](Oc2c(-c3ccc(O[C@@H]4O[C@H](CO)[C@@H](O)[C@H](O)[C@H]4O)cc3)oc3cc(O)cc(O)c3c2=O)O[C@H](CO)[C@@H](O)[C@@H]1O [ALLIVICTOSIDE A] | 109% | 55.6 µM |
| COc1cc(/C=C/C(=O)O[C@H]2[C@H](Oc3c(-c4ccc(O[C@@H]5O[C@H](CO)[C@@H](O)[C@H](O)[C@H]5O)cc4)oc4cc(O)cc(O)c4c3=O)O[C@H](CO)[C@@H](O)[C@@H]2O)ccc1O [ALLIVICTOSIDE B] | 107% | 20.7 µM |
| O=c1c(O[C@@H]2O[C@H](CO)[C@@H](O)[C@H](O)[C@H]2O)c(-c2ccc(O[C@@H]3O[C@H](CO)[C@@H](O)[C@H](O)[C@H]3O)c(O)c2)oc2cc(O)cc(O)c12 | 100% | 45.5 µM |
